Experimental findings from patent EP4653443A1, “STEREOISOMER AND DEUTERATED DERIVATIVE OF PYRAZOLOQUINAZOLINE COMPOUND AND USE” (Phil Rivers Technology Co., Ltd, priority 2023, dated 2024) are described below.

Like-named read-outs stand apart in the source and are kept apart here.

Data set [1] is described as follows: Metabolic stability in liver microsomes (human). Conditions: for Residual Amount (%) 15 min / Residual Amount (%) 30 min / Residual Amount (%) 45 min / Residual Amount (%) 60 min: Human, first line of pair; for half-life at 2 µM / microsomal CLint at 2 µM: pH 7.4. It is filed as in vitro ADME. The method, then: (§1) For negative samples, add 80µL of PBS (100mM, pH = 7.4) solution. Vortex at 800 rpm for 10 seconds, then pre-incubate in a 37°C water bath for 10 minutes. • 4) After pre-incubation, add 2 µL of control drug or test compound to each well to initiate the reaction. The reaction is carried out in a 37°C water bath at 60 rpm. • 5) At 0.5, 15, 30, 45, and 60 minutes, take 50 µL of the reaction system from each well and add it to 200 µL of cold methanol solution containing the internal standard to terminate the reaction. • 6) Mix thoroughly and centrifuge at 4000 rpm at 4°C for 30 minutes. • 7) Take 100µL of supernatant and mix with 100µL ultrapure water for liquid-mass analysis. *Internal standards: 50nM alprazolam, 50nM labetalol and 100nM ketoprofen
(§2) The internal standard method is adopted, and the ratio of the sample peak area to the internal standard peak area is used to calculate the residual percentage (taking the ratio of the sample peak area to the internal standard peak area at 0.5 minutes as 100%).
Background: Liver microsomes are a subcellular fraction often used to study metabolism.

Data set [2] deals with HCT116 cells. The data set is classed as in vivo. Conditions: for TGI: test endpoint (PG-D22), TGITV. On the procedure: • Balb/c nude mice: SPF grade, female, 6-8 weeks old, weighing 16-20 g, purchased from SPF (Beijing) Biotechnology Co., Ltd. • HCT116 cells: purchased from ATCC;
HCT116 cells were cultured in RPMI-1640 medium containing inactivated 10% fetal bovine serum, 100 U/mL penicillin, 100 µg/mL streptomycin and 2 mM glutamine in an incubator at 37°C with 5% CO2. Once the cells reached confluence, they were subcultured into new flasks. The tumor cells in the logarithmic growth phase were used for inoculation of tumors in vivo.
The tumor cells were washed twice with PBS, and the cell concentration was adjusted to 5×10^7/ml. The resuspended tumor cells were inoculated subcutaneously in the right flank of the experimental animals at 100 µL/mouse, i.e. 5×10^6/mouse. When the tumor grew to an average tumor volume of […], the animals were grouped for drug administration according to the tumor volume, with a total of 7 groups, 8 animals in each group. The first day of group drug administration was recorded as PG-D0. Table 25. Administration Schedule
During the administration, the health status of the animals is monitored.
From grouping until the end of the experiment, mouse body weight was measured every 3 days using an electronic balance.
From grouping until the end of the experiment, the long and short diameters of the mouse tumors were measured every 3 days using an electronic vernier caliper, and the volume was calculated using the formula: Volume (TV) = 0.5 × long diameter × (short diameter)^2.
RTV is the relative tumor volume, that is, the ratio of the tumor volume after administration to that before administration.
Graphpad prism 8 statistical software was used to perform statistical analysis of tumor volume and tumor weight among groups using the One-Way ANOVA test (homogeneity of variance), and p < 0.05 was considered statistically significant.

A short description of data set [3]: in vivo. Conditions: iv.
Experimental: The objective of this study is to investigate the pharmacokinetic properties of the disclosed compounds after tail vein intravenous injection (IV) and oral administration (PO) in female CD1 mice. Plasma was sampleed at 0, 0.083, 0.25, 0.5, 1, 2, 4, 7 and 24 hours post-dosing, and the drug concentrations in plasma at different time points were detected by LC-MS/MS, and the relevant pharmacokinetic parameters were calculated using WinNonlin software.
Experimental female CD1 mice were purchased from SPF Laboratory Animal Technology Co., Ltd., aged 6-8 weeks with body weights of 20-30 g. The female CD1 mice were housed in a controlled environment (set temperature at 20-25°C and relative humidity at 40-70%). A 12-hour light/12-hour dark cycle was maintained unless interrupted by study-related events.
Compound solutions are prepared in an ultra-clean workbench and prepared immediately before use, and mixed thoroughly prior to use to ensure formulation homogeneity.
Vehicle composition: 10% DMSO+90% (20%SBE-β-CD) Table 4. Doses Used in IV Administration
Vehicle composition: 10% DMSO + 90% (20%SBE-β-CD) Table 5. Doses Used in PO Administration
Vehicle composition: 0.5% MC + 1% Tween-20 Table 6. Doses Used in PO Administration
Prior to the experiment, the animals were randomly grouped. The mice were fasted for 12 hours before drug administration, and free feeding was resumed 4 hours after administration.
All blood samples were transferred into plastic microcentrifuge tubes containing anticoagulant (EDTA-K2), and then centrifuged at 4000 g for 5 minutes at 4°C. The supernatant was transferred into a microcentrifuge tube without anticoagulant, and the plasma was stored in a -75±15°C refrigerator until detection.
The blood samples were purified by HPLC and analyzed by mass spectrometry to obtain the plasma concentration-time curve of the disclosed compound.
The pharmacokinetic parameters were estimated by non-compartmental model method (calculated by Phoenix WinNonlin software).
Data set [4] is described as follows: Metabolic stability in liver microsomes (mouse). It is filed as in vitro ADME. The following applies: for Residual Amount (%) 15 min / Residual Amount (%) 30 min / Residual Amount (%) 45 min / Residual Amount (%) 60 min: Mouse, first line of pair. On the procedure:
as §1, §2

The test system of data set [5] is Pancreatic cancer cell line BxPC-3. In words: BxPC-3 subcutaneous tumor xenograft mouse model (pancreatic cancer). The data set is classed as in vivo. The following applies: for TGI: test endpoint, TGITV.
[6] abbreviates: 30 mg/kg p.o. q.d. 10 consecutive days.
Where [7] appears, read: 60 mg/kg p.o. q.d. 10 consecutive days.
The mark [8] stands for this setting: 60 mg/kg p.o. q.d., 8 mice per group.
Where [9] appears, read: female, CD1, mouse, plasma, 2 mg/kg.
Setting [10] is: female, CD1, mouse, plasma, 10 mg/kg.
[11] abbreviates: male, CD-1, pH 7.4, Mouse liver microsomes.
Where [12] appears, read: 90 mg/kg p.o. q.d. 10 consecutive days.

What is called half-life is the time in which the quantity being followed falls by half. As usually defined, the microsomal CLint is the rate of metabolic loss divided by the concentration. A lower microsomal CLint goes with greater metabolic stability. As a reminder, the AUC(0-t) is exposure summed from dosing to a finite time, without extrapolation to infinity. Read a high AUC(0-t) as high exposure. Usually Vd stands for the apparent volume that relates the amount in the body to the concentration in plasma or blood. The clearance is a measure of how efficiently the substance is removed, as volume per time. Turning to `CN1CCN(c2ccc(OC(F)(F)F)c(Nc3ncc4c(n3)-c3c(c(C(N)=O)nn3CCO)CC4)c2)CC1` [NMS-P937, onvansertib, reference compound], in data set [1], the “Residual Amount (%) 15 min” value is on record as 80.23%, the “Residual Amount (%) 30 min” value amounted to 73.16%, the “Residual Amount (%) 45 min” value stood at 69.74% and the “Residual Amount (%) 60 min” value turned out to be 58.94%. In data set [1] (Human liver microsomes), this compound returned a half-life at 2 µM of 1.44 h and a microsomal CLint at 2 µM of 16.1 µL/min/mg. This compound yielded a TGI in data set [2] (setting [6]) of 44.1%. The TGI in data set [2] (setting [7]) stood at 64.2%. In data set [2] (setting [8]), the mice died result was “three”. Also, in data set [3] (setting [9]), the AUC(0-t) amounted to 353 ng·h/mL, the Vd came to 5.71 L/kg, the clearance turned out to be 95.7 mL/min/kg and the half-life was 1.52 h. In data set [3] (setting [10]), this compound showed an AUC(0-t) of 4540 ng·h/mL, a Vd of 3.22 L/kg, a clearance of 36.9 mL/min/kg and a half-life of 3.52 h. In addition, in data set [4], the “Residual Amount (%) 15 min” value is 82.56%, the “Residual Amount (%) 30 min” value worked out at 69.31%, the “Residual Amount (%) 45 min” value amounted to 61.60% and the “Residual Amount (%) 60 min” value worked out at 53.17%. For the same compound, in data set [4] (setting [11]), the half-life at 2 µM was determined as 1.11 h and the microsomal CLint amounted to 20.9 µL/min/mg. For the same compound, in data set [5] (setting [7]), the “Mouse Mortality Rate” value worked out at 25% and the TGI came to 61%. In data set [5] (setting [8]), this compound came in with a mice died of 2.

In the case of `[2H]C1([2H])N(C)C([2H])([2H])C([2H])([2H])N(c2ccc(OC(F)(F)F)c(Nc3ncc4c(n3)-c3c(c(C(N)=O)nn3CCO)CC4)c2)C1([2H])[2H]` [CPD06], in data set [1], the “Residual Amount (%) 15 min” value was 86.05%, the “Residual Amount (%) 30 min” value came to 73.64%, the “Residual Amount (%) 45 min” value stood at 68.37% and the “Residual Amount (%) 60 min” value is listed as 63.15%. In data set [1] (Human liver microsomes), this compound displayed a half-life at 2 µM of 1.5 h and a microsomal CLint at 2 µM of 15.4 µL/min/mg. In data set [2] (setting [6]), this compound gave a TGI of 42.4%. In data set [2] (setting [7]), this compound came in with a TGI of 75.6%. In data set [3] (setting [10]), this compound gave an AUC(0-t) of 3050 ng·h/mL, a volume of distribution (Vd) of 3.02 L/kg, a clearance of 55.1 mL/min/kg and a half-life of 1.05 h. In data set [4], the “Residual Amount (%) 15 min” value worked out at 81.80%, the “Residual Amount (%) 30 min” value was determined as 68.21%, the “Residual Amount (%) 45 min” value is recorded as 64.96% and the “Residual Amount (%) 60 min” value worked out at 57.01%. For the same compound, in data set [4] (setting [11]), the half-life at 2 µM worked out at 1.27 h and the intrinsic metabolic clearance (microsomal CLint) is 18.2 µL/min/mg. Further, in data set [5] (setting [6]), the “Mouse Mortality Rate” value is 0% and the TGI was determined as 33%. In addition, in data set [5] (setting [7]), the “Mouse Mortality Rate” value was determined as 0% and the TGI is listed as 71%. Besides, in data set [5] (BxPC-3 tumor-bearing mice), the “toxic symptoms during the treatment” value is given as “No obvious toxic symptoms were observed”.

In data set [1] (Human liver microsomes), `[2H]C1([2H])CN(c2ccc(OC(F)(F)F)c(Nc3ncc4c(n3)-c3c(c(C(N)=O)nn3CCO)CC4)c2)C([2H])([2H])[C@H]2CCCN21` [CPD04] registered a half-life of 0.349 h and a microsomal CLint of 66.2 µL/min/mg. In data set [1], the “Residual Amount (%) 15 min” value worked out at 52.72%, the “Residual Amount (%) 30 min” value was determined as 28.62%, the “Residual Amount (%) 45 min” value came to 21.10% and the “Residual Amount (%) 60 min” value was 13.41%. The compound further showed a TGI in data set [2] (setting [6]) of 7.6%. In data set [2] (setting [7]), the TGI was determined as 30.5%. In data set [3] (mouse, in vivo, 10 mg/kg), this compound gave an AUC(0-t) of 3340 ng·h/mL, a Vd of 2.31 L/kg, a clearance of 50.1 mL/min/kg and a half-life of 1.06 h. Moreover, in data set [4] (Mouse liver microsomes), the half-life came out at 0.532 h and the microsomal CLint was found to be 43.4 µL/min/mg. Further, in data set [4], the “Residual Amount (%) 15 min” value is listed as 61.30%, the “Residual Amount (%) 30 min” value worked out at 39.18%, the “Residual Amount (%) 45 min” value amounted to 34.10% and the “Residual Amount (%) 60 min” value was 26.56%. Further, in data set [5] (setting [12]), the “Mouse Mortality Rate” value is recorded as 0% and the TGI was 53%.
